# Measurements taken from PubChem BioAssay AID2060348 (Molecular Pharmacology Branch, DTP, NCI, 2025).
# “And” between values parts separate entries of the source, which are not always exact repeats. Identical values can stand only once.
# Tested on: 885724-159-R-J1-PDC spheroids viability
# Experiment: Anticancer human tumor 885724-159-R-J1-PDC patient-derived pancreatic adenocarcinoma cell line growth inhibition [TAK]
# Conditions: spheroids with HUVEC and MSC; for viability, T/C: stronger effect = lower value
# Outline: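 Drug combinations, each paired with TAK-243 or ipatasertib, were tested on multi-cell spheroids of 60% malignant cells, 25% HUVEC and 15% hMSC. Top concentrations were at or near the clinical Cmax (10 microM if undetermined), decreasing by half-log; viability is given as % test/control.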
# [1] = curve of first compound, second compound 0.3 µM
# [2] = curve of first compound, second compound 0.949 µM
# [3] = curve of first compound, second compound 3 µM
# [4] = curve of first compound, second compound 9.49 µM
# [5] = curve of first compound, second compound 30 µM
# [6] = second compound 0.3 µM, first compound 0.000316 µM
# [7] = second compound 0.3 µM, first compound 0.001 µM
# [8] = second compound 0.3 µM, first compound 0.00316 µM
# [9] = second compound 0.3 µM, first compound 0.01 µM
# [10] = second compound 0.949 µM, first compound 0.000316 µM
# [11] = second compound 0.949 µM, first compound 0.001 µM
# [12] = second compound 0.949 µM, first compound 0.00316 µM
# [13] = second compound 0.949 µM, first compound 0.01 µM
# [14] = second compound 3 µM, first compound 0.000316 µM
# [15] = second compound 3 µM, first compound 0.001 µM
# [16] = second compound 3 µM, first compound 0.00316 µM
# [17] = second compound 3 µM, first compound 0.01 µM
# [18] = second compound 9.49 µM, first compound 0.000316 µM
# [19] = second compound 9.49 µM, first compound 0.001 µM
# [20] = second compound 9.49 µM, first compound 0.00316 µM
# [21] = second compound 9.49 µM, first compound 0.01 µM
# [22] = second compound 30 µM, first compound 0.000316 µM
# [23] = second compound 30 µM, first compound 0.001 µM
# [24] = second compound 30 µM, first compound 0.00316 µM
# [25] = second compound 30 µM, first compound 0.01 µM
# [26] = second compound 0.3 µM, first compound 0.0316 µM
# [27] = second compound 0.3 µM, first compound 0.1 µM
# [28] = second compound 0.949 µM, first compound 0.0316 µM
# [29] = second compound 0.949 µM, first compound 0.1 µM
# [30] = second compound 3 µM, first compound 0.0316 µM
# [31] = second compound 3 µM, first compound 0.1 µM
# [32] = second compound 9.49 µM, first compound 0.0316 µM
# [33] = second compound 9.49 µM, first compound 0.1 µM
# [34] = second compound 30 µM, first compound 0.0316 µM
# [35] = second compound 30 µM, first compound 0.1 µM
# 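Also: spheroids exposed to drugs for seven days.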
# 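For viability, T/C in this document: 100% = DMSO vehicle control viability.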
structure (smiles),measurement,setting,value
CC(C)CC(NC(=O)C(Cc1ccccc1)NC(=O)c1cnccn1)B(O)O (stereo unspecified) + CC(C)NCC(C(=O)N1CCN(c2ncnc3c2C(C)CC3O)CC1)c1ccc(Cl)cc1,IC50,[1],3.48 nM
same,IC50,[2],1.44 nM
same,IC50,[3],1.28 nM
same,IC50,[4],0.572 nM
same,IC50,[5],< 0.0316 nM
same,"viability, T/C","second compound 0.3 µM, first compound 31.6 pM",77.5%
same,"viability, T/C","second compound 0.3 µM, first compound 0.0001 µM",68.6%
same,"viability, T/C",[6],68.7%
same,"viability, T/C",[7],68.1%
same,"viability, T/C",[8],55%
same,"viability, T/C",[9],0.97%
same,"viability, T/C","second compound 0.949 µM, first compound 31.6 pM",60.3%
same,"viability, T/C","second compound 0.949 µM, first compound 0.0001 µM",64.1%
same,"viability, T/C",[10],59%
same,"viability, T/C",[11],65.8%
same,"viability, T/C",[12],23.7%
same,"viability, T/C",[13],1.29%
same,"viability, T/C","second compound 3 µM, first compound 31.6 pM",58.1%
same,"viability, T/C","second compound 3 µM, first compound 0.0001 µM",58.9%
same,"viability, T/C",[14],58.7%
same,"viability, T/C",[15],57.9%
same,"viability, T/C",[16],20.6%
same,"viability, T/C",[17],0.95%
same,"viability, T/C","second compound 9.49 µM, first compound 31.6 pM",48.1%
same,"viability, T/C","second compound 9.49 µM, first compound 0.0001 µM",54.8%
same,"viability, T/C",[18],50.5%
same,"viability, T/C",[19],49%
same,"viability, T/C",[20],21.1%
same,"viability, T/C",[21],0.94%
same,"viability, T/C","second compound 30 µM, first compound 31.6 pM",31%
same,"viability, T/C","second compound 30 µM, first compound 0.0001 µM",38.5%
same,"viability, T/C",[22],33.7%
same,"viability, T/C",[23],34.5%
same,"viability, T/C",[24],14.8%
same,"viability, T/C",[25],0.56%
COc1c(OCCCN2CCOCC2)ccc2c3n(c(=NC(=O)c4cnc(N)nc4)nc12)CCN3,"viability, T/C",compound 0.00316 µM,92.1% and 84.8%
same,"viability, T/C",compound 0.01 µM,69.9% and 64.1%
same,"viability, T/C",compound 0.0316 µM,47.1% and 47.6%
same,"viability, T/C",compound 0.1 µM,27.9% and 22.6%
same,"viability, T/C",compound 0.316 µM,14% and 13.8%
same,"viability, T/C",compound 1 µM,12.1% and 12%
same,IC50,curve of compound,26.7 nM and 23.3 nM
COC1CC2CCC(C)C(O)(O2)C(=O)C(=O)N2CCCCC2C(=O)OC(C(C)CC2CCC(OCCO)C(OC)C2)CC(=O)C(C)C=C(C)C(O)C(OC)C(=O)C(C)CC(C)C=CC=CC=C1C (stereo unspecified),"viability, T/C",compound 0.000316 µM,93.8% and 110%
same,"viability, T/C",compound 0.001 µM,91.7% and 92%
same,"viability, T/C",compound 0.00316 µM,79.7% and 77%
same,"viability, T/C",compound 0.01 µM,69.8% and 72.2%
same,"viability, T/C",compound 0.0316 µM,70.2% and 70.8%
same,"viability, T/C",compound 0.1 µM,67.6% and 62.2%
same,IC50,curve of compound,> 100 nM
CC(C)n1nc(-c2ccc3oc(N)nc3c2)c2c(N)ncnc21 + CC(C)NCC(C(=O)N1CCN(c2ncnc3c2C(C)CC3O)CC1)c1ccc(Cl)cc1,IC50,[1],18.5 nM
same,IC50,[2],6.88 nM
same,IC50,[3],3.15 nM
same,IC50,[4],< 0.316 nM
same,IC50,[5],< 0.316 nM
same,"viability, T/C",[6],66.2%
same,"viability, T/C",[7],64.1%
same,"viability, T/C",[8],56.8%
same,"viability, T/C",[9],53.9%
same,"viability, T/C",[26],48.6%
same,"viability, T/C",[27],37.1%
same,"viability, T/C",[10],57.2%
same,"viability, T/C",[11],63.5%
same,"viability, T/C",[12],54%
same,"viability, T/C",[13],47.5%
same,"viability, T/C",[28],38.4%
same,"viability, T/C",[29],33.6%
same,"viability, T/C",[14],58.1%
same,"viability, T/C",[15],61.8%
same,"viability, T/C",[16],47.7%
same,"viability, T/C",[17],38.8%
same,"viability, T/C",[30],31.5%
same,"viability, T/C",[31],28.6%
same,"viability, T/C",[18],47.4%
same,"viability, T/C",[19],45.6%
same,"viability, T/C",[20],38.3%
same,"viability, T/C",[21],30.9%
same,"viability, T/C",[32],25.5%
same,"viability, T/C",[33],23%
same,"viability, T/C",[22],32%
same,"viability, T/C",[23],29.5%
same,"viability, T/C",[24],30.2%
same,"viability, T/C",[25],20.5%
same,"viability, T/C",[34],19%
same,"viability, T/C",[35],16.4%
COc1c(OCCCN2CCOCC2)ccc2c3n(c(=NC(=O)c4cnc(N)nc4)nc12)CCN3 + CC(C)NCC(C(=O)N1CCN(c2ncnc3c2C(C)CC3O)CC1)c1ccc(Cl)cc1,IC50,[1],4.05 nM
same,IC50,[2],< 3.16 nM
same,IC50,[3],< 3.16 nM
same,IC50,[4],< 3.16 nM
same,IC50,[5],< 3.16 nM
same,"viability, T/C",[8],52.4%
same,"viability, T/C",[9],41.2%
same,"viability, T/C",[26],27.3%
same,"viability, T/C",[27],19.4%
same,"viability, T/C","second compound 0.3 µM, first compound 0.316 µM",13.4%
same,"viability, T/C","second compound 0.3 µM, first compound 1 µM",12.3%
same,"viability, T/C",[12],32.9%
same,"viability, T/C",[13],27.1%
same,"viability, T/C",[28],20.3%
same,"viability, T/C",[29],14.8%
same,"viability, T/C","second compound 0.949 µM, first compound 0.316 µM",12.1%
same,"viability, T/C","second compound 0.949 µM, first compound 1 µM",10.8%
same,"viability, T/C",[16],26.9%
same,"viability, T/C",[17],20.4%
same,"viability, T/C",[30],16%
same,"viability, T/C",[31],13.7%
same,"viability, T/C","second compound 3 µM, first compound 0.316 µM",11.6%
same,"viability, T/C","second compound 3 µM, first compound 1 µM",11.2%
same,"viability, T/C",[20],22.8%
same,"viability, T/C",[21],18.9%
same,"viability, T/C",[32],13.8%
same,"viability, T/C",[33],11.3%
same,"viability, T/C","second compound 9.49 µM, first compound 0.316 µM",9.95%
same,"viability, T/C","second compound 9.49 µM, first compound 1 µM",10.2%
same,"viability, T/C",[24],18%
same,"viability, T/C",[25],12.7%
same,"viability, T/C",[34],9.8%
same,"viability, T/C",[35],9.29%
same,"viability, T/C","second compound 30 µM, first compound 0.316 µM",6.93%
same,"viability, T/C","second compound 30 µM, first compound 1 µM",6.96%
CC(C)(C)c1nc(-c2cccc(NS(=O)(=O)c3c(F)cccc3F)c2F)c(-c2ccnc(N)n2)s1,"viability, T/C",compound 0.0316 µM,179% and 172%
same,"viability, T/C",compound 0.1 µM,262% and 233%
same,"viability, T/C",compound 0.316 µM,321% and 254%
same,"viability, T/C",compound 1 µM,332% and 269%
same,"viability, T/C",compound 3.16 µM,308% and 241%
same,"viability, T/C",compound 10 µM,200% and 176%
same,IC50,curve of compound,> 10000 nM
